“And” between values parts separate entries of the source, which are not always exact repeats. Equal entries are not always repeated.
Test system: 317291-083-R-J1-PDC complex spheroids, viability
Experiment: Anticancer human tumor 317291-083-R-J1-PDC patient-derived soft tissue sarcoma cell line growth inhibition [GQUAD]
Settings: for viability, T/C: stronger effect = lower value; for IC50: curve of compound
Source text: DNA G-quadruplex Stabilizer Agents in Combinations in Complex Spheroids
A high-throughput screen of multi-cell type tumor spheroids was designed to identify active combinations of DNA G-quadruplex stabilizer agents and targeted small molecules. Complex spheroids include a stromal component modeled by human endothelial cells (HUVEC) and fibroblasts modeled by human mesenchymal stem cells (MSCs). The concentration ranges selected for each drug and investigational agent were based upon clinically achievable concentrations if the clinical Cmax of the agent was known.
Compounds. The drugs and investigational agents: pidnarulex (CX-5461; NSC782164), APTO-253 (NSC789042), BRACO-19 (NSC847499), peposertib (NSC802822), ceralasertib (NSC780249), elimusertib (NSC800525), camonsertib (NSC841442), AZD-1390 (NSC803789), olaparib (NSC753686), talazoparib (NSC767125), ART-558 (NSC835418), sotorasib (NSC818433), MRTX-1133 (NSC836407), SN-38 (NSC673596), topotecan (NSC609699), etoposide (NSC141540), doxorubicin (NSC123127), gemcitabine (NSC613327), 5-fluorouracil (NSC19893), paclitaxel (NSC125973), vemurafenib (NSC761431), panobinostat (NSC761190), R-306465 (JNJ-16241199; NSC773264), adavosertib (NSC754352), TP-3654 (NSC805149), carboplatin (NSC241240), KSQ-4279 (NSC840948), and staurosporine (NSC755774) were obtained from the National Cancer Institute (NCI) Developmental Therapeutics Program Chemical Repository (34). The FDA-approved anticancer drug set is available from the NCI Developmental Therapeutics Program. […] The stock solutions were prepared in dimethyl sulfoxide (DMSO, Sigma-Aldrich, St. Louis, MO, cat. D2650) at 800-fold the tested concentration and stored at -70 degrees C prior to their use. All drugs and investigational agents were tested over a range starting from a high concentration at or near the clinical Cmax and decreasing in half-log increments. If the clinical Cmax for an agent had not been determined, the highest concentration tested was 10 microM.
2.3 Cell Culture. All cells were maintained in an incubator at 37 degrees C and 5% CO2 with 95% humidity. The PDC lines were cultured according to standard operating procedures established by the NCI PDMR. All PDCs were thawed and cultured in Matrigel-coated flasks prepared with a working solution of 1X Ham's F-12 nutrient mix, without supplementation (Invitrogen, cat. 11765054), 100 U/mL penicillin-streptomycin (Invitrogen, cat. 15140122), and 2.5% Matrigel (Corning Inc., cat. 354248) for the first three passages. The 857933-349-R-J2-PDC line was cultured in 6C/Colon 1B media, which includes advanced DMEM/F-12 (Thermo Fisher Scientific, cat. 12634028), 10 mM HEPES (Thermo Fisher Scientific, cat. 15630080), 1X GlutaMAX supplement (Thermo Fisher Scientific, cat. 35050061), 0.1 mg/mL primocin (InvivoGen, cat. ant-pm-2), 10% defined fetal bovine serum, heat inactivated (HyClone Laboratories Inc., cat. SH30070.03HI), 50% L-WRN conditioned media (ATCC, cat. CRL-3276), 1.25 mM N-Acetyl-L-cysteine (Sigma-Aldrich, cat. A9165), 10 mM nicotinamide (Sigma-Aldrich, cat. N0636), 1X B-27 supplement (Thermo Fisher Scientific, cat. 17504044), 1X N-2 supplement (Thermo Fisher Scientific, cat. 17502048), 10 microM Y-27632 dihydrochloride (Tocris Bioscience, cat. 1254), and 50 ng/mL human EGF recombinant protein (Thermo Fisher Scientific, cat. PHG0311). The 485176-168-R4-J1-PDC line was cultured in Panc media, which includes all 6C/Colon 1B media components plus 100 ng/mL human FGF-10 (Thermo Fisher Scientific, cat. 100-26), 500 nM SB-431542 (Selleckchem, cat. S1067), and gastrin (Tocris, cat. 3006).
[…]
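Also: spheroids exposed to compounds for one week before readout.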
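For viability, T/C in this document: percent viability relative to DMSO vehicle wells taken as 100%.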

Row | IC50 | SMILES | viability, T/C (compound 0.0316 µM) | viability, T/C (compound 0.1 µM) | viability, T/C (compound 0.316 µM) | viability, T/C (compound 1 µM) | viability, T/C (compound 3.16 µM) | viability, T/C (compound 10 µM) | viability, T/C (compound 0.000999 µM) | viability, T/C (compound 0.00316 µM) | viability, T/C (compound 0.00999 µM) | viability, T/C (compound 0.0999 µM)
1 | > 10 µM | C=CC(=O)N1CCN(c2nc(=O)n(-c3c(C)ccnc3C(C)C)c3nc(-c4c(O)cccc4F)c(F)cc23)C(C)C1 (stereo not given) | 108% (2×) and 110% | 105% and 102% and 99.9% | 118% and 108% and 110% | 101% (2×) and 102% | 99.1% and 101% and 97.7% | 69.1% and 68% and 75.9% |  |  |  | 
2 | 8.47 µM and 7.09 µM and 9.18 µM | CC(C)n1c(=O)n(C)c2cnc3cc(F)c(-c4ccc(OCCCN5CCCCC5)nc4)cc3c21 | 104% and 95.2% and 133% | 94% and 71.9% and 96.8% | 103% and 92.6% and 102% | 106% and 94.4% and 105% | 81.3% and 74.1% and 100% | 44.8% and 39.7% and 45.3% |  |  |  | 
3 | 0.0814 µM and 0.061 µM and 0.0842 µM | CC1COCCN1c1cc(-c2ccnn2C)c2ccnc(-c3ccn[nH]3)c2n1 (stereo not given) | 93.3% and 80.4% and 110% | 40.7% and 25.8% and 39.3% | 20.1% and 22% and 14.4% | 20.6% and 15.7% and 21.6% | 15.3% and 14.9% and 14.8% | 12.3% and 12.6% and 11.2% |  |  |  | 
4 | 1.05 µM and 1.4 µM and 1.98 µM | CC1COCCN1c1cc(C2(S(C)(=N)=O)CC2)nc(-c2ccnc3[nH]ccc23)n1 (stereo not given) | 88.1% and 103% and 100% | 104% and 90.7% and 106% | 91.8% and 90.3% and 101% | 50.2% and 61.5% and 87% | 23.9% and 23.1% and 24.4% | 13.9% and 18.3% and 13.1% |  |  |  | 
5 | 0.00161 µM and 0.00172 µM and 0.00151 µM | CCc1c2c(nc3ccc(O)cc13)-c1cc3c(c(=O)n1C2)COC(=O)[C@]3(O)CC | 12.7% and 11.9% and 9.88% |  | 4.6% and 5.68% and 4.03% |  |  |  | 67.6% and 68.7% and 66.8% | 24.9% and 26.7% and 19.9% | 13% and 18.2% and 10.6% | 8.64% and 6.96% and 7.26%
6 | 7.57 µM and 5.13 µM and > 10 µM | COc1ccc([C@@H](O)c2cc(-c3ncnc4cc(N5CCOCC5)ccc34)c(F)cc2Cl)nn1 | 95.9% and 104% and 114% | 97.8% and 87.1% and 92.8% | 103% (2×) and 99.2% | 72.4% and 93.8% and 95% | 74.5% and 61.3% and 76.2% | 42.8% and 34.4% and 49.6% |  |  |  | 
7 | > 10 µM | Cc1cccc(N(C)C(=O)C2C(O)CCN2c2nc(C)cc(C(F)(F)F)c2C#N)c1 (stereo not given) | 98.9% and 109% and 103% | 92.7% and 102% and 96.2% | 91.3% and 123% and 98.8% | 106% and 90.7% and 99.7% | 105% and 86.5% and 93.1% | 81.7% and 77.5% and 81.6% |  |  |  | 
8 | > 0.316 µM | Cn1ncnc1[C@H]1c2n[nH]c(=O)c3cc(F)cc(c23)N[C@@H]1c1ccc(F)cc1 | 86.2% and 89.7% and 90.5% |  | 64.2% and 62.6% and 69% |  |  |  | 123% and 104% (2×) | 109% and 92.2% and 102% | 99.7% and 95.3% and 94.3% | 98.2% and 67.3% and 84.9%
9 | > 10 µM | O=C(c1cc(Cc2n[nH]c(=O)c3ccccc23)ccc1F)N1CCN(C(=O)C2CC2)CC1 | 111% and 115% and 109% | 96.5% and 83.9% and 97.3% | 120% and 96.5% and 93.9% | 88.7% and 107% and 99.4% | 87.6% and 84.9% and 93.7% | 71% and 58.2% and 59.2% |  |  |  | 

The next lines start with the compound.

Row | SMILES | IC50 | viability, T/C (compound 0.0316 µM) | viability, T/C (compound 0.1 µM) | viability, T/C (compound 0.316 µM) | viability, T/C (compound 1 µM) | viability, T/C (compound 3.16 µM) | viability, T/C (compound 10 µM) | viability, T/C (compound 0.000999 µM) | viability, T/C (compound 0.00316 µM) | viability, T/C (compound 0.00999 µM) | viability, T/C (compound 0.0999 µM)
10 | CC1COCCN1c1cc(C2(O)CC3CCC(C2)O3)c2cnn(-c3ccn[nH]3)c2n1 (stereo not given) | 0.0469 µM and 0.0569 µM and < 0.0316 µM | 57.9% and 71.5% and 44.9% | 37.3% and 29.8% and 26.9% | 14.3% and 11.5% and 14.8% | 20.7% and 20.3% and 15.5% | 14.6% and 11.3% and 12.4% | 2.47% and 3.18% and 2.04% |  |  |  | 
11 | CC[C@@]1(O)C(=O)OCc2c1cc1n(c2=O)Cc2cc3c(CN(C)C)c(O)ccc3nc2-1 | 0.0515 µM and 0.0539 µM and 0.0597 µM | 70.6% and 71.7% and 80.6% |  | 14% and 20.4% and 10.5% |  |  |  | 116% and 105% and 101% | 84% and 86.8% and 104% | 94.2% and 83.8% and 102% | 22.3% and 25% and 25.1%
12 | COc1cc(C2c3cc4c(cc3C(OC3OC5COC(C)OC5C(O)C3O)C3COC(=O)C23)OCO4)cc(OC)c1O (stereo not given) | 0.311 µM and 0.457 µM and 0.384 µM | 94.7% and 99.8% (2×) | 96.7% and 94.9% and 84.3% | 48.8% and 64% and 53.8% | 22.1% and 20.2% and 30.3% | 15.9% and 15.7% and 15.8% | 12% and 11.2% and 17% |  |  |  | 
13 | COc1cccc2c1C(=O)c1c(O)c3c(c(O)c1C2=O)CC(O)(C(=O)CO)CC3OC1CC(N)C(O)C(C)O1 (stereo not given) | 0.0684 µM and 0.0715 µM and 0.0693 µM | 77.5% and 82.5% and 86.8% | 35% and 28.7% and 27.3% | 20% and 26.3% and 22.3% | 8.85% and 15.2% and 15.3% | 3.09% and 0.8% and 0.76% | 4.03% and 0.72% and 2.93% |  |  |  | 
14 | Cc1[nH]c2ccccc2c1CCNCc1ccc(/C=C/C(=O)NO)cc1 | 0.0414 µM and 0.0579 µM and 0.0653 µM | 62.6% and 80.2% and 99% |  | 0.25% and 0.09% and 0.84% |  |  |  | 108% and 109% and 114% | 92% and 89.5% and 96.1% | 106% and 110% and 105% | 8.77% and 22.1% and 21.3%
15 | Cc1cnc(CNC(=O)c2c(=O)c3ccc(N4CCCN(C)CC4)nc3n3c2sc2ccccc23)cn1 |  | 93.8% [middle of 12 runs] | 68.8% [middle of 12 runs] |  | 31.6% [middle of 12 runs] |  |  |  |  |  | 
16 | Nc1ccn(C2OC(CO)C(O)C2(F)F)c(=O)n1 (stereo not given) | 0.0373 µM and 0.0363 µM and 0.0551 µM | 55.7% and 53.6% and 61.2% | 16.2% and 24.2% and 38% | 16.1% and 12.7% and 9.59% | 13.7% and 10.9% and 8.17% | 10.1% and 14.3% and 9.39% | 9.89% and 13.5% and 8.25% |  |  |  | 
17 | O=c1[nH]cc(F)c(=O)[nH]1 | 1.6 µM and 2.36 µM and 2.34 µM | 102% and 111% and 94.4% | 112% and 101% and 100% | 95.9% and 101% and 111% | 59.7% and 96.8% and 66.8% | 35% and 34% and 49.6% | 36.3% and 23.9% and 38.4% |  |  |  | 
